The results in this text go back to patent US11098044B2, “Imidazopyridinyl compounds and use thereof for treatment of neurodegenerative disorders” (1ST Biotherapeutics, Inc., priority 2019, dated 2021).

Assay type in all cases: biochemical
Assay [1] deals with c-Abl (His-tagged recombinant human ABL1) (Homo sapiens (Human), UniProt P00519). Kind of assay: c-abl Kinase Assay (ADP-Glo). Particulars: ATP (25 μM), Abltide substrate. A digest of the protocol: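 His-tagged human ABL1 (0.25 ng/μl), Abltide (0.01 μg/μl) and ATP (25 μM), each at its added concentration, reacted with compound (0.5% DMSO) for 30 min at 30 °C. Buffer was 50 mM HEPES pH 7.5, 10 mM MgCl2, 1 mM EGTA, 0.05% BSA, 0.01% Triton X-100, 2 mM DTT. ADP formed was read by ADP-Glo luminescence, and IC50 was fitted from percent inhibition across concentrations.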
(In general: In ADP-Glo the light output rises with the ADP produced.)

Assay [2] concerns the target LRRK2 (WT) (Homo sapiens (Human), UniProt Q5S007). Kind of assay: LRRK2 Kinase Assay (Adapta). Particulars: 70 μM ATP, LRRKtide substrate. Put shortly:
(§1)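 Adapta TR-FRET kinase assay with LRRKtide substrate in 50 mM Tris pH 8.5, 0.01% BRIJ-35, 10 mM MgCl2, 1 mM EGTA, 0.02% NaN3. ATP at Km: 70 μM for WT LRRK2, 100 μM for G2019S. Reaction 1 h at room temperature; after 60 min with detection mix, 665/615 nm emission ratio read.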

The target in assay [3] is LRRK2 G2019S (Homo sapiens (Human), UniProt Q5S007, G2019S). Put plainly: LRRK2 G2019S Kinase Assay (Adapta). The note with it: 100 μM ATP, LRRKtide substrate; read-out: LRRK2_G2019S IC50. A digest of the protocol: as §1

Structures are written as SMILES. Some results are limits rather than exact numbers.

The term IC50 denotes the point on the concentration scale where inhibition reaches its midpoint.

LRRK2 (WT), sequence (Q5S007 whole entry): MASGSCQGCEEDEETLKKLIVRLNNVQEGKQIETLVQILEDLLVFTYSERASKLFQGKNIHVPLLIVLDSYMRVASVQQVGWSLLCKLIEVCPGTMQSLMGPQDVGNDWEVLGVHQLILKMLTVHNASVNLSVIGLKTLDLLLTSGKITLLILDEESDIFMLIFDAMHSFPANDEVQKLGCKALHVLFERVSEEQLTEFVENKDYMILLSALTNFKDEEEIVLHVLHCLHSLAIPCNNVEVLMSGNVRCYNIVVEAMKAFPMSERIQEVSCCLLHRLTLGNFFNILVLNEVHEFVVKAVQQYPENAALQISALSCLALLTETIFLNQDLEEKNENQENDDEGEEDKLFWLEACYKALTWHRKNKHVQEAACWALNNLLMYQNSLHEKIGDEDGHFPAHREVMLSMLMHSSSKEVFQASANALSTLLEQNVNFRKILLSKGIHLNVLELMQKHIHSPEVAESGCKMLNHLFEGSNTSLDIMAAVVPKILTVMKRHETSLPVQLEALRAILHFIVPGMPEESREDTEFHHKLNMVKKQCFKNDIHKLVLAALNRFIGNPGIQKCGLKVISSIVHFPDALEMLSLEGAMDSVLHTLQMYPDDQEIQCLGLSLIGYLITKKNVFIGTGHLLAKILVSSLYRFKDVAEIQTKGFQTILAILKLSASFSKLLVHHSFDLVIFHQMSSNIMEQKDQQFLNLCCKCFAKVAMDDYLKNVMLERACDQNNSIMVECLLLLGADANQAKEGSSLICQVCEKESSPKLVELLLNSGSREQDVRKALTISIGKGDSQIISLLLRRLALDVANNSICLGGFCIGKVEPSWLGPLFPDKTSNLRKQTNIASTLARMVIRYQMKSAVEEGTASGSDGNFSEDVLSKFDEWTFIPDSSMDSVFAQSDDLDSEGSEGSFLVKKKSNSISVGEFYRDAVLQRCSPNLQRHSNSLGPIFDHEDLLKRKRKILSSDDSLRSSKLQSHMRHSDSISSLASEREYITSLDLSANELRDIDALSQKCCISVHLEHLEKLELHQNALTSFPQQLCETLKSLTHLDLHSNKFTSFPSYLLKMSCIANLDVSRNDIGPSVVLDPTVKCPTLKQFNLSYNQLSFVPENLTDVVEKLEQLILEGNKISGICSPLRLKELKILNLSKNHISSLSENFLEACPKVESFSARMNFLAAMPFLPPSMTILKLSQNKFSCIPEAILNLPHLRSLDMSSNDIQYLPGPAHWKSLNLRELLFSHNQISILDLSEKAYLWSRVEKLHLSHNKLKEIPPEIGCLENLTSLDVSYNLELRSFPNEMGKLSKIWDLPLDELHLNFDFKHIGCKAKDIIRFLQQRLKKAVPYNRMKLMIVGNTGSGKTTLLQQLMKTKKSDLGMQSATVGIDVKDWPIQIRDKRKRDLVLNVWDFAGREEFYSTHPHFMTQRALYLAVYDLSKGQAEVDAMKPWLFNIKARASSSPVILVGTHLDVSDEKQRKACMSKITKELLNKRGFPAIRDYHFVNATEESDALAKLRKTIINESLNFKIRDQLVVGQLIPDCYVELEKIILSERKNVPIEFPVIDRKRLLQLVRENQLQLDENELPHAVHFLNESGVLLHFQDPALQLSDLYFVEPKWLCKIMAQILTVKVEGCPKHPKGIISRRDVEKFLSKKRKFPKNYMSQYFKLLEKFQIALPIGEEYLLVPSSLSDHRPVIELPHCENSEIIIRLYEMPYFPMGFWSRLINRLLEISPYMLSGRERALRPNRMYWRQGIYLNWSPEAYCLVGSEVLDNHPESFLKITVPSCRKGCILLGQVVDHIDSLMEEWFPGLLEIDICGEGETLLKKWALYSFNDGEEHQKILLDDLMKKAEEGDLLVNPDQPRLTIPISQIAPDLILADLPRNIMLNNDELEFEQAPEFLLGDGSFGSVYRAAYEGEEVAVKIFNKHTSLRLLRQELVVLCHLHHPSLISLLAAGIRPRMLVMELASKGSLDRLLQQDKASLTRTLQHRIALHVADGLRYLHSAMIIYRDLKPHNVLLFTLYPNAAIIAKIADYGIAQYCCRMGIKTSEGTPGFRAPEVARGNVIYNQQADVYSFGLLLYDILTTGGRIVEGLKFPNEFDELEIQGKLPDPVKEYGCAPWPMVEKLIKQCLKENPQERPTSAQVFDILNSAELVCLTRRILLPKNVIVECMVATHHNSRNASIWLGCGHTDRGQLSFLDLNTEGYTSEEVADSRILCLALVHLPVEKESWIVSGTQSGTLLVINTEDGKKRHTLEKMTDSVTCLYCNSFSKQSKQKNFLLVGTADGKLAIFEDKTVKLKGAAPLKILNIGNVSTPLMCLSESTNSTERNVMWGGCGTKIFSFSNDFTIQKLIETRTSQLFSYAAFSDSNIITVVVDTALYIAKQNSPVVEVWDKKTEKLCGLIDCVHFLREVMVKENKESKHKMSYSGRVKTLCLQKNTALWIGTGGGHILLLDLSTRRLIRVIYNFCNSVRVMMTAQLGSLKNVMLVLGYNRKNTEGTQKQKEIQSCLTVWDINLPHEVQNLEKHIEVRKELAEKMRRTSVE
c-Abl (His-tagged recombinant human ABL1), sequence (P00519 whole entry): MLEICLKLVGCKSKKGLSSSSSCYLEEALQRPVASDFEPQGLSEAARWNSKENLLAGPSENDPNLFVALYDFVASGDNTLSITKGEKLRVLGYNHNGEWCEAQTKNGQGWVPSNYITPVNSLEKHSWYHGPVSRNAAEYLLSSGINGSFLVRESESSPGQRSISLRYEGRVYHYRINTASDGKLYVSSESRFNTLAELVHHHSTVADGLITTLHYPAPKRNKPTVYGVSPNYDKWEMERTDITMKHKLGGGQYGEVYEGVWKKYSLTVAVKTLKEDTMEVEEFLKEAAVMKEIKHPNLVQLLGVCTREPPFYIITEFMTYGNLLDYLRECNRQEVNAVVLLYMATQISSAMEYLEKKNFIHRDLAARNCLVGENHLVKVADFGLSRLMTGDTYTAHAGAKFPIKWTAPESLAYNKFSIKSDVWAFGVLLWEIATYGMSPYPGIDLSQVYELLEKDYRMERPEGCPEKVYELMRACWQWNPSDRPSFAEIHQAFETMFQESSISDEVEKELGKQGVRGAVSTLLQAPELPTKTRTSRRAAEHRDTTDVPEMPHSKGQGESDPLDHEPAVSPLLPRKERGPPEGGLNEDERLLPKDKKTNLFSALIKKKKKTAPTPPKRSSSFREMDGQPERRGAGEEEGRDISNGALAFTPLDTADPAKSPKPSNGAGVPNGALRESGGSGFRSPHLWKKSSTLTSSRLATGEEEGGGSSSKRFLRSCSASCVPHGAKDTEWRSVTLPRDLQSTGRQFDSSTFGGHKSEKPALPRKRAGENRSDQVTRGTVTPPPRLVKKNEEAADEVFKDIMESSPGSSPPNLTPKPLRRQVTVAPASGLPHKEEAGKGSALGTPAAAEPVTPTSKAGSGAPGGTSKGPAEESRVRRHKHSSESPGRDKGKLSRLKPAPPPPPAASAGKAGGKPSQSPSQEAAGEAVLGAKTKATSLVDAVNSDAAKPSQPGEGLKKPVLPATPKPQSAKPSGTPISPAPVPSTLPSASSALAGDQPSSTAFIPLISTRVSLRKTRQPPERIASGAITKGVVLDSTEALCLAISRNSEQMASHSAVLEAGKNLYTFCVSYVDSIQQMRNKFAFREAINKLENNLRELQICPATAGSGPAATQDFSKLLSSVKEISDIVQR
LRRK2 G2019S, sequence (Q5S007 whole entry G2019S): as the sequence (Q5S007 whole entry) above, with G2019S counted along it

For `Cc1cccc(Cl)c1-c1ccc2nc(NC(=O)[C@@H]3C[C@@H]3F)cn2c1` [Example 52, (1S,2S)—N-(6-(2-chloro-6-methylphenyl)imidazo[1,2-a]pyridin-2-yl)-2-fluorocyclopropane-1-carboxamide], the IC50 in assay [1] is less than 0.01 µM; in assay [2], 0.101 to 1 µM; in assay [3] it was 0.01 to 0.1 µM.
As for `Cc1ccc(Cl)cc1-c1ccc2nc(NC(=O)[C@@H]3C[C@@H]3F)cn2c1` [Example 26, (1S,2S)—N-(6-(5-chloro-2-methylphenyl)imidazo[1,2-a]pyridin-2-yl)-2-fluorocyclopropane-1-carboxamide], the IC50 is less than 0.01 µM in assay [1], 0.101 to 1 µM in assay [2] and 0.101 to 1 µM in assay [3].
Regarding `Cc1c(F)cccc1-c1ccc2nc(NC(=O)[C@@H]3C[C@@H]3F)c(Cl)n2c1` [Example 3, (1S,2S)—N-(3-chloro-6-(3-fluoro-2-methylphenyl)imidazo[1,2-a]pyridin-2-yl)-2-fluorocyclopropane-1-carboxamide], the IC50 in assay [1] was 0.01 to 0.1 µM; in assay [2], 0.101 to 1 µM; in assay [3] it was 0.101 to 1 µM.
As to `Cc1ccc2[nH]cc(C)c2c1-c1ccc2nc(NC(=O)[C@@H]3C[C@@H]3F)cn2c1` [Example 63, (1S,2S)—N-(6-(3,5-dimethyl-1H-indol-4-yl)imidazo[1,2-a]pyridin-2-yl)-2-fluorocyclopropanecarboxamide], the figures for the IC50 in assay [1], in assay [2] and in assay [3] were less than 0.01 µM, 0.101 to 1 µM and 0.01 to 0.1 µM, respectively.
`Cc1cc(N(C)C)ncc1-c1ccc2nc(NC(=O)[C@@H]3C[C@@H]3F)cn2c1` [Example 69, (1S,2S)—N-(6-(6-(dimethylamino)-4-methylpyridin-3-yl)imidazo[1,2-a]pyridin-2-yl)-2-fluorocyclopropanecarboxamide]: the results for the IC50 in assay [1], in assay [2] and in assay [3] were 0.101 to 1 µM, more than 1 µM and more than 1 µM, respectively.
Turning to `Cc1c[nH]nc1-c1ccc2nc(NC(=O)[C@@H]3C[C@@H]3F)cn2c1` [Example 19, (1S,2S)-2-fluoro-N-(6-(4-methyl-1H-pyrazol-3-yl)imidazo[1,2-a]pyridin-2-yl)cyclopropane-1-carboxamide], the values for the IC50 in assay [1], in assay [2] and in assay [3] were 0.01 to 0.1 µM, 0.101 to 1 µM and 0.101 to 1 µM, respectively.
For `Cc1c(F)cccc1-c1ccc2nc(NC(=O)[C@H]3C[C@@H]3F)cn2c1` (stereo in doubt) [Example 71, 2-fluoro-N-(6-(3-fluoro-2-methylphenyl)imidazo[1,2-a]pyridin-2-yl)cyclopropanecarboxamide], the IC50 is less than 0.01 µM in assay [1], 0.101 to 1 µM in assay [2] and 0.01 to 0.1 µM in assay [3].
Regarding `O=C(Nc1cn2cc(-c3cnccc3C(F)(F)F)ccc2n1)[C@@H]1C[C@@H]1F` [Example 31, (1S,2S)-2-fluoro-N-(6-(4-(trifluoromethyl)pyridin-3-yl)imidazo[1,2-a]pyridin-2-yl)cyclopropane-1-carboxamide], the IC50 is 0.101 to 1 µM in assay [1], more than 1 µM in assay [2] and 0.101 to 1 µM in assay [3].
As to `O=C(Nc1cn2cc(-c3cccc(F)c3Cl)ccc2n1)[C@@H]1C[C@@H]1F` [Example 61, (1S,2S)—N-(6-(2-chloro-3-fluorophenyl)imidazo[1,2-a]pyridin-2-yl)-2-fluorocyclopropanecarboxamide], the IC50 in assay [1] is less than 0.01 µM; in assay [2] it was 0.01 to 0.1 µM; in assay [3], 0.01 to 0.1 µM.
As for `Cc1ccncc1-c1ccc2nc(NC(=O)[C@@H]3C[C@@H]3F)c(Cl)n2c1` [Example 7, (1S,2S)—N-(3-chloro-6-(4-methylpyridin-3-yl)imidazo[1,2-a]pyridin-2-yl)-2-fluorocyclopropane-1-carboxamide], the IC50 in assay [1] was 0.101 to 1 µM; in assay [2], more than 1 µM; in assay [3], more than 1 µM.
Turning to `NCc1c(F)cccc1-c1ccc2nc(NC(=O)[C@@H]3C[C@@H]3F)cn2c1` [Example 74, (1S,2S)—N-(6-(2-(aminomethyl)-3-fluorophenyl)imidazo[1,2-a]pyridin-2-yl)-2-fluorocyclopropanecarboxamide], the IC50 in assay [1], in assay [2] and in assay [3] was more than 1 µM in each case.
Regarding `Cc1c(F)ccc(F)c1-c1ccc2nc(NC(=O)[C@@H]3C[C@@H]3F)cn2c1` [Example 45, (1S,2S)—N-(6-(3,6-difluoro-2-methylphenyl)imidazo[1,2-a]pyridin-2-yl)-2-fluorocyclopropane-1-carboxamide], the results for the IC50 in assay [1], in assay [2] and in assay [3] were less than 0.01 µM, 0.101 to 1 µM and 0.01 to 0.1 µM, respectively.
Take `Cc1cc(Cl)ccc1-c1ccc2nc(NC(=O)[C@@H]3C[C@@H]3F)cn2c1` [Example 29, (1S,2S)—N-(6-(4-chloro-2-methylphenyl)imidazo[1,2-a]pyridin-2-yl)-2-fluorocyclopropane-1-carboxamide]: the IC50 in assay [1] is less than 0.01 µM; in assay [2], 0.101 to 1 µM; in assay [3], 0.101 to 1 µM.
As for `Cc1cc(N)ncc1-c1ccc2nc(NC(=O)[C@@H]3C[C@@H]3F)cn2c1` [Example 49, (1S,2S)—N-(6-(6-amino-4-methylpyridin-3-yl)imidazo[1,2-a]pyridin-2-yl)-2-fluorocyclopropane-1-carboxamide], the half-maximal inhibitory concentration (IC50) was less than 0.01 µM in assay [1], more than 1 µM in assay [2] and more than 1 µM in assay [3].
Turning to `Cc1ccc2[nH]ccc2c1-c1ccc2nc(NC(=O)[C@@H]3C[C@@H]3F)cn2c1` [Example 15, (1S,2S)-2-fluoro-N-(6-(5-methyl-1H-indol-4-yl)imidazo[1,2-a]pyridin-2-yl)cyclopropane-1-carboxamide], the IC50 in assay [1], in assay [2] and in assay [3] was less than 0.01 µM each time.
Turning to `COc1c(F)cccc1-c1ccc2nc(NC(=O)[C@@H]3C[C@@H]3F)cn2c1` [Example 59, (1S,2S)-2-fluoro-N-(6-(3-fluoro-2-methoxyphenyl)imidazo[1,2-a]pyridin-2-yl)cyclopropanecarboxamide], the IC50 in assay [1] is less than 0.01 µM; in assay [2], 0.01 to 0.1 µM; in assay [3], 0.01 to 0.1 µM.
Regarding `Cc1ccc(F)cc1-c1ccc2nc(NC(=O)[C@@H]3C[C@@H]3F)cn2c1` [Example 11, (1S,2S)-2-fluoro-N-(6-(5-fluoro-2-methylphenyl)imidazo[1,2-a]pyridin-2-yl)cyclopropane-1-carboxamide], the half-inhibitory concentration (IC50) in assay [1] is less than 0.01 µM; in assay [2], 0.01 to 0.1 µM; in assay [3] it was 0.01 to 0.1 µM.
In the case of `Cc1ccnc(F)c1-c1ccc2nc(NC(=O)[C@@H]3C[C@@H]3F)cn2c1` [Example 47, (1S,2S)-2-fluoro-N-(6-(2-fluoro-4-methylpyridin-3-yl)imidazo[1,2-a]pyridin-2-yl)cyclopropane-1-carboxamide], the values for the IC50 in assay [1], in assay [2] and in assay [3] were 0.01 to 0.1 µM, 0.101 to 1 µM and 0.01 to 0.1 µM, respectively.
In the case of `Cc1ccc(C)c(-c2ccc3nc(NC(=O)[C@@H]4C[C@@H]4F)cn3c2)c1` [Example 34, (1S,2S)—N-(6-(2,5-dimethylphenyl)imidazo[1,2-a]pyridin-2-yl)-2-fluorocyclopropane-1-carboxamide], the IC50 in assay [1] is less than 0.01 µM; in assay [2] it was 0.101 to 1 µM; in assay [3], 0.101 to 1 µM.
`Cc1cccc(-c2ccc3nc(NC(=O)[C@@H]4C[C@@H]4F)cn3c2)c1C` [Example 22, (1S,2S)—N-(6-(2,3-dimethylphenyl)imidazo[1,2-a]pyridin-2-yl)-2-fluorocyclopropane-1-carboxamide]: the IC50 in assay [1] was less than 0.01 µM; in assay [2] it was 0.101 to 1 µM; in assay [3], 0.101 to 1 µM.
